Assays:
Ebolavirus = test: Antiviral activity against pseudotyped EBOV Mayinga infected in human A549 cells assessed as inhibition of Pseudoviral entry incubated for 40 hrs; format: functional, organism-based; details: Orthoebolavirus, A549, 40 h
[1] = Selectivity index, ratio of CC50 for cytotoxicity against human A549 cells to EC50 for antiviral activity against pseudotyped EBOV Mayinga infected in human A549 cells assessed as inhibition of Pseudoviral entry; format: toxicity, cell-based; details: read-out: Ratio CC50/EC50
Marburgvirus = test: Antiviral activity against pseudotyped Marburgvirus Angola infected in human A549 cells assessed as inhibition of Pseudoviral entry incubated for 40 hrs; format: functional, organism-based; details: Orthomarburgvirus, A549, 40 h
[2] = Selectivity index, ratio of CC50 for cytotoxicity against human A549 cells to EC50 for antiviral activity against pseudotyped Marburgvirus Angola infected in human A549 cells assessed as inhibition of Pseudoviral entry; format: toxicity, cell-based; details: read-out: Ratio CC50/EC50
A549 = test: Cytotoxicity against human A549 cells assessed as as reduction in cell viability incubated for 48 hrs by celltiter-glo assay; format: functional
Sudan ebolavirus = test: Antiviral activity against pseudotyped Sudan ebolavirus Gulu infected in human A549 cells assessed as inhibition of viral growth; format: functional, organism-based
Tai Forest ebolavirus = test: Antiviral activity against pseudotyped Tai Forest ebolavirus infected in human A549 cells assessed as inhibition of viral growth; format: functional, organism-based

Compound	EC50 (Ebolavirus) [µM]	selectivity ratio [1]	EC50 (Marburgvirus) [µM]	selectivity ratio [2]	CC50 (A549) [µM]	EC50 (Sudan ebolavirus) [µM]	EC50 (Tai Forest ebolavirus) [µM]
CN(C)C1CCN(C(=O)c2cc3ccccc3n2C)CC1	16.5	> 6.1	> 100	< 1			
CC1CCN(c2ccc(NC(=O)c3cc4occc4n3Cc3ccc(Cl)cc3)cc2C(F)(F)F)CC1	4.03	25	13.6	7.4	> 100		
CN1CCCN(C(=O)c2cc3occc3n2Cc2cccc(C(F)(F)F)c2)CC1	1.73	40	8.64	8.1			
CN(C)C1CCN(C(=O)c2cc3ccccc3n2Cc2ccc(Cl)cc2)CC1	1.38	44	6.83	< 1		0.884	4.95
CN(C)CCNC(=O)c1cn(Cc2ccccc2)c2ccccc12	3.28	21	11.1	6.1			
CN(C)C1CCN(C(=O)c2cn(Cc3ccc(F)cc3)c3ccccc23)CC1	2.54	30	10.9	6.9			
CN(C)CCNC(=O)c1cc2ccccc2n1Cc1ccc(-c2ccccc2)cc1	2.77	5.9	3.1	14			
O=C(NCCN1CCC1)c1cc2occc2n1Cc1cccc(C(F)(F)F)c1	1.94	20	6.22	6.2			
CN(C)CCNC(=O)c1cc2occc2n1Cc1cccc(C(F)(F)F)c1	1.68	32	4.29	13			
CN(C)CC1CN(C(=O)c2cc3occc3n2Cc2ccc(Cl)cc2)C1	1.23	46	4.57	12			
CN(C)CCNC(=O)c1cc2ccccc2n1Cc1ccc(F)cc1	3.39	16	4.21	8.9			
O=C(NCCCn1ccnc1)c1cc2occc2n1Cc1cccc(C(F)(F)F)c1	4.32	13	9.78	5.9			
O=C(c1cc2ccccc2n1Cc1ccccc1)N1CCCCC1	9.11	11	> 100	11			
CN(C)CCNC(=O)c1cn(Cc2ccc(F)cc2)c2ccccc12	3	21	6.47	8.9			
CCN(CC)CCNC(=O)c1cc2occc2n1Cc1ccc(Cl)cc1	1.61	38	3.67	17			
CN(C)CCCNC(=O)c1cc2occc2n1Cc1ccc(Cl)cc1	2.01	36	5.52	13			
CN(C)C1CCN(C(=O)c2cc3ccccc3n2Cc2cccnc2)CC1	5.3	> 19	38.6	2.6			
CN(C)C1CCN(C(=O)c2cc3ccccc3n2Cc2ccc(-c3ccccc3)cc2)CC1	1.06	14	1.99	7.2			
CN(C)CCNC(=O)c1cc2occc2n1C(=O)OCc1ccccc1	8.11	> 12	31.1	> 3.1			
CN(C)C1CCN(C(=O)c2cc3occc3n2Cc2cccc(C(F)(F)F)c2)CC1	1.5	67	9.72	10	~100		
CN(C)C1CCN(C(=O)c2cccn2Cc2ccccc2)CC1	1.11	90	17.8	5.6			

Compound	EC50 (Ebolavirus) [µM]	selectivity ratio [1]	EC50 (Marburgvirus) [µM]	selectivity ratio [2]	CC50 (A549) [µM]	EC50 (Sudan ebolavirus) [µM]	EC50 (Tai Forest ebolavirus) [µM]
O=C(Nc1ccc(N2CCOCC2)cc1)c1cc2occc2n1Cc1ccc(Cl)cc1	> 100	1	> 100	1	> 100		
CN(C)C1CCN(C(=O)c2cc3ccccc3n2Cc2ccncc2)CC1	162	> 6.2	3.78	27			
CC(C)N1CCN(C(=O)c2cc3occc3n2Cc2cccc(C(F)(F)F)c2)CC1	3.43	29	22.2	4.4			
CN(C)C1CCN(C(=O)c2cc3occc3n2C(=O)OCc2ccccc2)CC1	1.68	> 60	29.8	> 3.4			
CN(C)CCNC(=O)c1cc2occc2n1Cc1ccc(Cl)c(C(F)(F)F)c1	1.9	17	3.16	10			
CN1CCCN(C(=O)c2cc3occc3n2Cc2ccc(Cl)cc2)CC1	1.41	71	10.5	9.6			
CN(C)C1CCN(C(=O)c2cc3occc3n2Cc2ccc(F)cc2)CC1	3.93	> 25	11.4	> 8.8			
CN(C)CCNC(=O)c1cc2occc2n1C	> 100	1	> 100	1			
CN1CCCN(C(=O)c2cc3sccc3n2Cc2ccc(Cl)cc2)CC1	4.16	24	10.8	9.3			
CN(C)CCNC(=O)c1cc2occc2n1Cc1ccc(F)cc1	2.62	> 38	10.8	> 93			
CN1CCN(C(=O)c2cc3sccc3n2Cc2ccc(Cl)cc2)CC1	9.75	10	24.7	4.1			
CN(C)C1CCN(C(=O)CN(Cc2ccccc2)c2ccccc2)CC1	10.7	9.4	> 100	< 1			
CN(C)CCNC(=O)c1cc2ccccc2n1Cc1ccccc1	2.74	24	6.8	9.5			
CN(C)CCNC(=O)c1cc2sccc2n1Cc1ccc(Cl)cc1	2.17	19	3.14	13			
O=C(c1cc2sccc2n1Cc1ccc(Cl)cc1)N1CCN(C2CCCCC2)CC1	10.9	4.9	13.9	3.8			
CN1CCN(CCCNC(=O)c2cc3occc3n2Cc2ccc(Cl)cc2)CC1	1.86	42	7.7	10			
CN(C)CCNC(=O)c1cc2occc2n1Cc1ccccc1	4.51	22	25.6	3.9			
O=C(NCCCn1ccnc1)c1cc2occc2n1Cc1ccc(Cl)cc1	6.24	16	13.2	7.6			
CCOc1ncc(NC(=O)c2cc3occc3n2Cc2ccc(Cl)cc2)cc1F	2.43	41	> 100	1	> 100		
CC(C)N1CCN(C(=O)c2cc3sccc3n2Cc2ccc(Cl)cc2)CC1	5.84	17	32.8	3.1			

— ChEMBL document CHEMBL5576160, “N-Substituted Pyrrole-Based Heterocycles as Broad-Spectrum Filoviral Entry Inhibitors” (J Med Chem, 2024)
